SMILES strings stand for the structures. Where a name gives a salt, the structure may show the parent alone.

This experiment concerns the target human full-length MKNK1 (Homo sapiens (Human), UniProt Q9BUB5, T344D). In words: MKNK1 kinase high ATP assay (TR-FRET). The settings on record: 2 mM ATP, 15 min preincubation with enzyme, GST-MKNK1 (T344D). It is filed as biochemical. The method in brief:
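GST-tagged full-length human MKNK1 (1-424, T344D, baculovirus-expressed) preincubated 15 min at 22 °C with compound, then reacted 30 min at 22 °C with 2 mM ATP and 0.06 μM biotinylated peptide (final) in HEPES pH 7.5. Phospho-substrate by TR-FRET (665/622 nm ratio), normalised to no-inhibitor and no-enzyme controls.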
(In general: Time-resolved FRET reads energy transfer from a long-lived donor to a nearby acceptor.)

Chain of human full-length MKNK1 (Q9BUB5 other isoform, or with tags, fused parts or gaps T344D): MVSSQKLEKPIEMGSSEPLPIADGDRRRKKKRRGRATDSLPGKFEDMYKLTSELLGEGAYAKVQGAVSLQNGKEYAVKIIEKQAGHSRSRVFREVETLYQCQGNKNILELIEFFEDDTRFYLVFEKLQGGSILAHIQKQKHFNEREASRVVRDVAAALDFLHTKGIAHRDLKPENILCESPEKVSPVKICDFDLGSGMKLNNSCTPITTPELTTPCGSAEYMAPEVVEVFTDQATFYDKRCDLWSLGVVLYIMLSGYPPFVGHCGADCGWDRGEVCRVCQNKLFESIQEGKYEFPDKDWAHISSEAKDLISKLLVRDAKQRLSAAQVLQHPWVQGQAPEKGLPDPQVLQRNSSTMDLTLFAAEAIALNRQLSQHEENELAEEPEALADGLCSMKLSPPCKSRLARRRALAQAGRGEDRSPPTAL

Turning to `Cc1cc(Nc2ncnc3nc(CC(F)(F)F)[nH]c23)c(=O)n2c1C(=O)NC21CCCCC1` [Example 37, 8′-Methyl-6′-{[8-(2,2,2-trifluoroethyl)-7H-purin-6-yl]amino}-2′H-spiro[cyclohexane-1,3′-imidazo[1,5-a]pyridine]-1′,5′-dione], the IC50 (in general, the point on the concentration scale where inhibition reaches its midpoint) is 10.3 nM.

Turning to `Cc1cc(Nc2ncnc3c2CN(C(=O)OC(C)(C)C)C3)c(=O)n2c1C(=O)NC2(C)C` [Example 163, tert-Butyl 4-[(3,3,8-trimethyl-1,5-dioxo-1,2,3,5-tetrahydroimidazo[1,5-a]pyridin-6-yl)amino]-5,7-dihydro-6H-pyrrolo[3,4-d]pyrimidine-6-carboxylate], the IC50 is 16.8 nM. Compared with the last compound, the IC50 is about 1.6-fold higher.

As to `Cc1cc(Nc2ncnc3[nH]ncc23)c(=O)n2c1C(=O)NC21CCCCC1` [Example 34, 8′-Methyl-6′-(1H-pyrazolo[3,4-d]pyrimidin-4-ylamino)-2′H-spiro[cyclohexane-1,3′-imidazo[1,5-a]pyridine]-1′,5′-dione hydrochloride], the IC50 (hydrochloride) is 8.1 nM. In other words, the single-digit nanomolar range.

`Cc1cc(Nc2ncnc3scnc23)c(=O)n2c1C(=O)NC21CCCC1` [Example 100, 8′-Methyl-6′-([1,3]thiazolo[5,4-d]pyrimidin-7-ylamino)-2′H-spiro[cyclopentane-1,3′-imidazo[1,5-a]pyridine]-1′,5′-dione] yielded an IC50 of 70.5 nM.

`Cc1cc(Nc2ncnc(N)n2)c(=O)n2c1C(=O)NC2(C)C` [Example 131, 6-[(4-Amino-1,3,5-triazin-2-yl)amino]-3,3,8-trimethyl-2,3-dihydroimidazo[1,5-a]pyridine-1,5-dione] showed an IC50 of 32.2 nM. Against the preceding compound, the IC50 is about 2.2-fold lower.

In turn, `Cc1cc(Nc2ncnc3sc(C(=O)N4CC(NC(=O)OC(C)(C)C)C4)cc23)c(=O)n2c1C(=O)NC21CCC1` [Example 153, tert-Butyl [1-({4-[(8′-methyl-1′,5′-dioxo-1′,5′-dihydro-2′H-spiro[cyclobutane-1,3′-imidazo[1,5-a]pyridin]-6′-yl)amino]thieno[2,3-d]pyrimidin-6-yl}carbonyl)azetidin-3-yl]carbamate] displayed a 50% inhibitory concentration (IC50) of 5.3 nM.

For `Cc1cc(Nc2ncnc3c(F)c(F)ccc23)c(=O)n2c1C(=O)NC21CCCCC1` [Example 115, 6′-[(7,8-Difluoroquinazolin-4-yl)amino]-8′-methyl-2′H-spiro[cyclohexane-1,3′-imidazo[1,5-a]pyridine]-1′,5′-dione], the IC50 is 208 nM. This IC50 is about 39-fold higher than that of the compound before.

For the compound `Cc1cc(Nc2ncnc3scnc23)c(=O)n2c1C(=O)NC2(C)C` [Example 164, 3,3,8-Trimethyl-6-([1,3]thiazolo[5,4-d]pyrimidin-7-ylamino)-2,3-dihydroimidazo[1,5-a]pyridine-1,5-dione], inhibition was half-maximal at 383 nM (IC50).

In the case of `Cc1cc(Nc2ncnc3scnc23)c(=O)n2c1C(=O)NC21CCCCC1` [Example 51, 8′-Methyl-6′-([1,3]thiazolo[5,4-d]pyrimidin-7-ylamino)-2′H-spiro[cyclohexane-1,3′-imidazo[1,5-a]pyridine]-1′,5′-dione], the IC50 is 2.9 nM.

`Cc1cc(Nc2ncnc3ccc(C(F)(F)F)cc23)c(=O)n2c1C(=O)NC21CCCC1` [Example 184, 8′-methyl-6′-{[6-(trifluoromethyl)quinazolin-4-yl]amino}-2′H-spiro[cyclopentane-1,3′-imidazo[1,5-a]pyridine]-1′,5′-dione] displayed an IC50 of 34 nM.

`Cc1cc(Nc2ncnc3sc(C(=O)N4C[C@@H]5C[C@H]4CO5)cc23)c(=O)n2c1C(=O)NC21CCCCC1` [Example 66, 8′-Methyl-6′-({6-[(1S,4S)-2-oxa-5-azabicyclo[2.2.1]hept-5-ylcarbonyl]thieno[2,3-d]pyrimidin-4-yl}amino)-2′H-spiro[cyclohexane-1,3′-imidazo[1,5-a]pyridine]-1′,5′-dione]: half-maximal inhibition (IC50) required 9 nM.

`Cc1cc(Nc2ncnc3ccc(F)cc23)c(=O)n2c1C(=O)NC21CCC1` [Example 171, 6′-[(6-fluoroquinazolin-4-yl)amino]-8′-methyl-2′H-spiro[cyclobutane-1,3′-imidazo[1,5-a]pyridine]-1′,5′-dione]: the concentration for half-maximal inhibition (IC50) came to 6 nM.

As for `Cc1cc(Nc2ncnc3cccc(C)c23)c(=O)n2c1C(=O)NC21CSC1` [Example 174, 8-methyl-6-[(5-methylquinazolin-4-yl)amino]-2H-spiro[imidazo[1,5-a]pyridine-3,3′-thietane]-1,5-dione], the IC50 came out at 12.8 nM.

Compound `Cc1cc(Nc2ncnc3c2CN(S(=O)(=O)C(F)F)C3)c(=O)n2c1C(=O)NC21CCCCC1` [Example 71, 6′-({6-[(difluoromethyl)sulfonyl]-6,7-dihydro-5H-pyrrolo[3,4-d]pyrimidin-4-yl}amino)-8′-methyl-2′H-spiro[cyclohexane-1,3′-imidazo[1,5-a]pyridine]-1′,5′-dione] showed an IC50 of 59.2 nM.

For the compound `Cc1cc(Nc2ncnc3c(Cl)cc(Cl)cc23)c(=O)n2c1C(=O)NC21CCCCC1` [Example 110, 6′-[(6,8-Dichloroquinazolin-4-yl)amino]-8′-methyl-2′H-spiro[cyclohexane-1,3′-imidazo[1,5-a]pyridine]-1′,5′-dione], the IC50 was 5580 nM.

Compound `Cc1cc(Nc2ncnc3sc(C(=O)N4CC[C@@H](N(C)C)C4)cc23)c(=O)n2c1C(=O)NC21CCC(F)(F)CC1` [Example 86, 6′-[(6-{[(3R)-3-(Dimethylamino)pyrrolidin-1-yl]carbonyl}thieno[2,3-d]pyrimidin-4-yl)amino]-4,4-difluoro-8′-methyl-2′H-spiro[cyclohexane-1,3′-imidazo[1,5-a]pyridine]-1′,5′-dione] came in with an IC50 of 11.9 nM.

As for `Cc1cc(Nc2ccnc3ccccc23)c(=O)n2c1C(=O)NC21CCCCC1` [Example 4, 8′-Methyl-6′-(quinolin-4-ylamino)-2′H-spiro[cyclohexane-1,3′-imidazo[1,5-a]pyridine]-1′,5′-dione], the IC50 turned out to be 306 nM.

For `Cc1cc(Nc2ncnc3[nH]ncc23)c(=O)n2c1C(=O)NC21CCCCC1` [Example 7, 8′-Methyl-6′-(1H-pyrazolo[3,4-d]pyrimidin-4-ylamino)-2′H-spiro[cyclohexane-1,3′-imidazo[1,5-a]pyridine]-1′,5′-dione], the IC50 worked out at 2 nM.

Compound `Cc1cc(Nc2ncnc3ccc(F)cc23)c(=O)n2c1C(=O)NC21CCCCC1` [Example 113, 6′-[(6-Fluoroquinazolin-4-yl)amino]-8′-methyl-2′H-spiro[cyclohexane-1,3′-imidazo[1,5-a]pyridine]-1′,5′-dione] gave an IC50 of 15.4 nM.

Turning to `Cc1cc(Nc2ncnc3sc(C(=O)O)cc23)c(=O)n2c1C(=O)NC21CCCCC1` [Example 9, 4-[(8′-Methyl-1′,5′-dioxo-1′,5′-dihydro-2′H-spiro[cyclohexane-1,3′-imidazo[1,5-a]pyridin]-6′-yl)amino]thieno[2,3-d]pyrimidine-6-carboxylic acid], the IC50 is 82.6 nM.

For the compound `Cc1cc(Nc2ncnc3sc(C(=O)N4CC[C@@H](N(C)C)C4)cc23)c(=O)n2c1C(=O)NC21CCC1` [Example 156, 6′-[(6-{[(3R)-3-(Dimethylamino)pyrrolidin-1-yl]carbonyl}thieno[2,3-d]pyrimidin-4-yl)amino]-8′-methyl-2′H-spiro[cyclobutane-1,3′-imidazo[1,5-a]pyridine]-1′,5′-dione], inhibition was half-maximal at 4.3 nM (IC50). Against the preceding compound, the IC50 is about 19-fold lower.

`Cc1cc(Nc2ncnc3[nH]ccc23)c(=O)n2c1C(=O)NC21CCCC1` [Example 55, 8′-Methyl-6′-(7H-pyrrolo[2,3-d]pyrimidin-4-ylamino)-2′H-spiro[cyclopentane-1,3′-imidazo[1,5-a]pyridine]-1′,5′-dione] returned an IC50 of 0.3 nM.

`Cc1cc(Nc2ncnc3sc(C(=O)O)c(C)c23)c(=O)n2c1C(=O)NC21CCCC1` [Example 95, 5-Methyl-4-[(8′-methyl-1′,5′-dioxo-1′,5′-dihydro-2′H-spiro[cyclopentane-1,3′-imidazo[1,5-a]pyridin]-6′-yl)amino]thieno[2,3-d]pyrimidine-6-carboxylic acid] displayed an IC50 of 5.8 nM.

`COc1cccc2ncnc(Nc3cc(C)c4n(c3=O)C3(CCCCC3)NC4=O)c12` [Example 118, 6′-[(5-Methoxyquinazolin-4-yl)amino]-8′-methyl-2′H-spiro[cyclohexane-1,3′-imidazo[1,5-a]pyridine]-1′,5′-dione] showed an IC50 of 66.3 nM.

In turn, `Cc1cc(Nc2ncnc3ccc(Cl)cc23)c(=O)n2c1C(=O)NC21CCSCC1` [Example 197, 6-[(6-chloroquinazolin-4-yl)amino]-8-methyl-2′,3′,5′,6′-tetrahydro-2H-spiro[imidazo[1,5-a]pyridine-3,4′-thiopyran]-1,5-dione] came in with an IC50 of 14.9 nM. This IC50 is about 4.4-fold lower than that of the compound before.

The compound `Cc1cc(Nc2ncnc3sc(C(N)=O)c(C)c23)c(=O)n2c1C(=O)NC21CCCC1` [Example 107, 5-Methyl-4-[(8′-methyl-1′,5′-dioxo-1′,5′-dihydro-2′H-spiro[cyclopentane-1,3′-imidazo[1,5-a]pyridin]-6′-yl)amino]thieno[2,3-d]pyrimidine-6-carboxamide] had an IC50 of 111 nM.

`Cc1cc(Nc2ncnc3sc(C(=O)N4CC(N)C4)cc23)c(=O)n2c1C(=O)NC21CCC1` [Example 154, 6′-({6-[(3-Aminoazetidin-1-yl)carbonyl]thieno[2,3-d]pyrimidin-4-yl}amino)-8′-methyl-2′H-spiro[cyclobutane-1,3′-imidazo[1,5-a]pyridine]-1′,5′-dione] returned an IC50 of 5 nM.

For `Cc1cc(Nc2ncnc3sc(C(=O)N4CC(C#N)C4)cc23)c(=O)n2c1C(=O)NC21CCC1` [Example 155, 1-({4-[(8′-Methyl-1′,5′-dioxo-1′,5′-dihydro-2′H-spiro[cyclobutane-1,3′-imidazo[1,5-a]pyridin]-6′-yl)amino]thieno[2,3-d]pyrimidin-6-yl}carbonyl)azetidine-3-carbonitrile], the IC50 came to 5.3 nM.

For `Cc1cc(Nc2ncnc3sc(C(=O)N4CC[C@@H](N(C)C)C4)cc23)c(=O)n2c1C(=O)NC2(C)C` [Example 142, 6-[(6-{[(3R)-3-(Dimethylamino)pyrrolidin-1-yl]carbonyl}thieno[2,3-d]pyrimidin-4-yl)amino]-3,3,8-trimethyl-2,3-dihydroimidazo[1,5-a]pyridine-1,5-dione], the IC50 worked out at 20 nM.
